Like-named read-outs stand apart in the source and are kept apart here.
Columns and labels:
[1] = Acute toxicity (lethal dose) in Swiss mice, parenteral and oral; conditions: mouse, in vivo
Description: The acute toxicity of the compounds of the invention was determined on Swiss mice parenterally, (intravenously, intraperitoneally, subcutaneously) and orally.
Measurement of the lethal doses of N-(1-methyl-2-pyrrolidinylmethyl)-2,3-dimethoxy-5-methylsulphamoyl benzamide (compound 1) and its levorotatory isomer (compound 2) gave the following results: […]

[2] = tested on: rat; assay: Cystomanometry in the anesthetized rat; type: in vivo
Description: (§1) A pharmacological study of the compound of the invention which consisted of studying its action on the results of cystomanometry in the rabbit and rat was performed under the following conditions: the animals were anesthesized with pentobarbitol and were given artificial respiration. The left outer jugular vein was catheterized to permit the I.V. injection of the studied product. The bladder was then exteriorized and the two ureters were connected and provided with two catheters, one of which was used to measure the intravesical pressure and the other for the vesical filling.
(§2) The vesical was filled by perfusion of 0.9% salt water at a constant flow rate of 40 ml/min for the rabbit and 5 ml/min for the rat.
(§3) The intravesical pressure before perfusion and the perfused water volume were measured.
(§4) The following parameters were studied: the intravesical pressure before perfusion P1 the intravesical pressure at the time of starting urination P2 […]
(§5) the volume of salt water perfused the quantity discharged during urination the residual quantity only in the bladder.
The cystomanometry study was performed under the following conditions: a first perfusion was carried out after stabilising the preparation for 5 minutes a second perfusion was carried out 15 minutes after the first a third perfusion was carried out 5 minutes after the second. […]

[3] = tested on: pelvic spasms; assay: Treatment of pelvic spasms on probe after urological gynecological surgery; type: in vivo; conditions: intramuscular or intravenous
[4] = Clinical tolerance and ease of oral treatment in both indications; type: in vivo, men and women
Description: For both the above indications, the ease of oral treatment was appreciated and the tolerance was excellent.

[5] = tested on: functional disorders of the lower urinary apparatus of men; assay: Double blind study in males versus lipidosterolic complex extracted from pygeum africanum (prostatism); type: in vivo
Description: functional disorders of the lower urinary apparatus of men and particularly in the case of prostatism
(§6) 2. To check these impressions, two studies were carried out according to the double blind procedure:
The study was carried out in comparison with the only possible reference product: lipidosterolic complex extracted from pygeum africanum.

[6] = tested on: rabbit; assay: Cystomanometry in the anesthetized rabbit; type: in vivo
Description: as §1, §2, §3, §4, §5
The cystomanometry study was performed under the following conditions: a first perfusion was carried out after stabilising the preparation for 5 minutes a second perfusion was carried out 15 minutes after the first a third perfusion was carried out 5 minutes after the second.
The study was performed by chronic and acute administration to the rabbit and acute administration to the rat.
The study of the rabbit was performed in the following manner:
10 male rabbits having an average weight of 2500±100 g were used as the control batch for the chronic administration study, 10 male rabbits with an average weight of 2500±100 g were treated every morning for 8 days with N-(1-methyl-2-pyrrolidinylmethyl)-2,3-dimethoxy-5-methylsulphamoyl benzamide intramuscularly injected at a dosage of 10 mg/kg/day. The final injection was carried out 30 minutes before the experiment […]
for the acute administration study 2 batches of 10 male rabbits with an average weight of 2500±100 g were treated with N-(1-methyl-2-pyrrolidinylmethyl)-2,3-dimethoxy-5-methylsulphamoyl benzamide intravenously administered at doses of 5 and 50 mg/kg.
For the controls and for all the treated batches the first perfusion is used as a standard for the following perfusions (each animal serving as its own control).
In the case of the acute administration of N-(1-methyl-2-pyrrolidinylmethyl)-2,3-dimethoxy-5-methylsulphamoyl benzamide to both the rabbit and the rat the product was injected at the end of the first perfusion.
There was a delay of 15 minutes before the two other perfusions (this was also respected for the controls in order to adhere to the same experimental conditions).

[7] = tested on: man; assay: Gaseous cystomanometric study in man (cases of serious neurological bladder); type: in vivo
Description: A person suffering from multiple sclerosis suffered from incontinence, pollakisuria and the very frequent need to urinate. The intramuscular injection of two 100 mg ampules of the compound of the invention delayed the need to urinate for a volume of 150 cm^3, compared with 80 cm^3 before treatment.
A person having psychogenic urinary disorders with incontinence and pollakisuria received two 100 mg ampules of the compound according to the invention by the intramuscular route. They only needed to urinate for a volume of 400 cm^3, compared with 200 cm^3 before treatment. They were able to voluntarily prevent urination for 2 minutes compared with 15 seconds before treatment.

[8] = tested on: cystalgias with clear urine in women; assay: Double blind study in females versus placebo (cystalgias with clear urine); type: in vivo
Description: cystalgias with clear urine in women.
as §6
Due to the absence of a reference product the activity of the present product was compared with a placebo.

[9] = intravenous, read-out: LD50 I.V.
[10] = ip, intraperitoneal, read-out: LD50 I.P.
[11] = sc, subcutaneous, read-out: LD50 S.C.

Row | SMILES | LD50 [1, 9] [mg/kg] | LD50 [1, 10] [mg/kg] | LD50 ([1]; oral, read-out: LD50 P.O.) [mg/kg] | LD50 [1, 11] [mg/kg] | same phenomena as in the rabbit (ΔP, perfusion volume) ([2]; acute I.V. 50 and 100 mg/kg) | urinary volume ([2]; second and third perfusions, particularly at I.V. dosage of 50 mg/kg) | activity in the treatment of pelvic spasms [3] | tolerance [4] | superiority over lipidosterolic complex extracted from pygeum africanum [5] | urinary threshold ([6]; anesthetized rabbit) | significance of differences compared with the controls ([6]; rabbit, acute I.V. 5 and 50 mg/kg) | variations of the same parameters (ΔP, perfusion volume) ([6]; rabbit, acute I.V. 5 and 50 mg/kg, second and third perfusions, compared with chronic administration) | decrease of the perfusion volume compared with the controls ([6]; rabbit, intramuscular, 10 mg/kg/day for 8 days) | reduction of ΔP (P2 - P1) compared with control batch ([6]; rabbit, intramuscular, 10 mg/kg/day for 8 days, as from the first perfusion) | difference of ΔP compared with the controls at the third perfusion ([6]; rabbit, intramuscular, 10 mg/kg/day for 8 days, third perfusion) | vesical tolerance ([7]; man, two cases of serious neurological bladder) | volume at which need to urinate occurs ([7]; person, multiple sclerosis, intramuscular, two 100 mg ampules, 80 cm^3 before treatment) [cm^3] | time of voluntary prevention of urination ([7]; person, psychogenic urinary disorders, intramuscular, two 100 mg ampules, 15 seconds before treatment) [min] | volume at which need to urinate occurs ([7]; person, psychogenic urinary disorders, intramuscular, two 100 mg ampules, 200 cm^3 before treatment) [cm^3] | superiority over placebo [8]
1 | CNS(=O)(=O)c1cc(OC)c(OC)c(C(=O)NCC2CCCN2C)c1 (single isomer, unassigned) [Compound 2, Levorotatory N-(1-methyl-2-pyrrolidinylmethyl)-2,3-dimethoxy-5-methylsulphamoyl benzamide] | 90 to 94.6 | 310 to 336 | 1080 to 1150 | 741 to 780 | – | – | – | – | – | – | – | – | – | – | – | – | – | – | – | –
2 | CNS(=O)(=O)c1cc(OC)c(OC)c(C(=O)NCC2CCCN2C)c1 (stereo not drawn) [Compound 1, N-(1-methyl-2-pyrrolidinylmethyl)-2,3-dimethoxy-5-methylsulphamoyl benzamide] | 130 to 135 | 315 to 323 | 992 to 1050 | 936 to 960 | not observed | significant increase | remarkably active | excellent | statistically significant | lowers the urinary threshold | highly significant | Variations in the same direction of the same parameters and in the same proportions | about half | about a third | reduced at the third perfusion | increase in the vesical tolerance | 150 | 2 | 400 | very significant

— patent publication US4263316A, “N-(1-Methyl-2-pyrrolidinylmethyl)-2,3-dimethoxy-5-methylsulfamoyl benzamide and its derivatives, methods of preparing them and their application to the treatment of troubles of the lower part of the body” (Societe d'Etudes Scientifiques et Industrielles de l'Ile de …, priority 1978, dated 1981)
